Earlier results on three compounds are cited in patent publication US7419990B2, “Piperidine derivatives as melanocortin-4 receptor agonists” (Merck & Co., Inc., priority 2003, dated 2008).

Series [1] deals with psychogenic erectile dysfunction.
A further series relates to erectile dysfunction. As to conditions: for duration of effect / onset of action: after an oral dose; for share of patients with adequate response: oral.

Regarding “Ac-Nle-c[Asp-His-DPhe-Arg-Trp-Lys]-NH2 [MT-II]”, in series [1] (in vivo), the duration of action result was “approximately 2.5 hours” and the “time to onset of erection” value was 10 to 20 min. Moreover, in series [1] (injected intramuscularly or subcutaneously), the response rate is listed as 75%. Further, the “absorption into the systemic circulation” value in series [1] (oral route) is “not absorbed into the systemic circulation”.

Consider `Cc1ccc(N(CC2=NCCN2)c2cccc(O)c2)cc1` [phentolamine], for which, in the series with erectile dysfunction, the duration of effect was 2 h, the onset of action was 5 to 30 min and the “share of patients with adequate response” value was 35-40%.

For the compound `CCCc1nn(C)c2c(=O)[nH]c(-c3cc(S(=O)(=O)N4CCN(C)CC4)ccc3OCC)nc12` [sildenafil], in the series on erectile dysfunction, the duration of effect entry is reported as “about 4 hours”, the onset of action is 30 to 60 min and the “share of patients with adequate response” value is on record as “about 70%”.
